Measurements reported in patent publication US10287617B2, “Methods for in vitro—in vivo efficacy determination” (COLORADO STATE UNIVERSITY RESEARCH FOUNDATION, priority 2014, dated 2019).

How the values were obtained:
[1] = tested on: non-replicating M. tuberculosis H37Rv; assay: Low oxygen study, non-replicating bacilli; assay type: cell-based, Mycobacterium tuberculosis; conditions: for Log10 (CFU+/−SD): 96 h post-treatment; for % Growth Reduction: benzimidazoles at 4 μg/mL; for Log10 (CFU) Reduction: vs control
Protocol: The low oxygen studies were performed similar to those described previously (Lenaerts et al., Antimicrob. Agents Chemother. 2005; 49:2294-2301). Briefly, M. tuberculosis H37Rv were diluted to an O.D. 600 nm of 0.003 in 7H9 media containing Methylene Blue (1.5 μg/mL) and were grown in 16×125 mm Hungate tubes with rubber septa (VWR cat#89167-170). The tubes, with 11 mL of the diluted cultures were incubated at 37° C. under agitation (150 rpm). […] One week after the reduction of methylene blue, approximately 28 days from the start, drug treatment was initiated with the test and control drugs. Prior to treatment, an aliquot was removed and plated for a CFU count to serve as a control. Isoniazid and metronidazole were used in the studies as comparative controls.
Recovery of aliquots for plating and the addition of drugs were conducted through septa using syringes to maintain the low-oxygen conditions. Ninety-six hours post-treatment, 1 mL of the culture was removed from the oxygen depleted cultures, the aliquot was serial diluted and the dilutions were plated. Log10 CFUs were calculated for the different treatments and concentrations. Percentage growth reduction from the controls was calculated and reported.

M. tuberculosis H37Rv [2] = assay type: cell-based; conditions: for MIC Alone: drug alone
[3] = tested on: Mycobacteria tuberculosis; assay: MIC and drug response curve type (Tables A and B); assay type: cell-based, Mycobacterium tuberculosis; conditions: for Curve: drug response curve type; for MIC: in µg/mL
Protocol: A drug concentration response curve can be generated by graphing the log10 drug concentrations (μg/mL) against the difference in growth between the drug-treated wells and control wells. See FIG. 3C, and FIG. 5 (entries for SB-P23D8 and SB-P26D9). A NREBA is indicative of bacteriostatic activity above the MIC.
(§1) Further analysis using the methods described herein was performed on the compounds found in Tables A and B (bold font compounds are shown in FIG. 11) resulting in the data found therein.
MIC values were determined for the benzimidazoles using a modified 96-well microplate Alamar Blue (resazurin) assay (MABA) (see Kumar et al., J. Med. Chem. 2011; 54:374-381; Collins and Franzblau, Antimicrob. Agents Chemother. 1997; 41:1004-1009). Dose response curves were generated from the MABA assay for compounds by graphing the log10 drug concentrations against the difference in growth between the drug-treated wells and control wells using GraphPad Prism Version 5.0d for Mac OS X (GraphPad Software, San Diego Calif., USA, www.graphpad.com). For time dose studies, bacterial growth in the presence of compound was monitored by the O.D. 600 nm. […] The values were plotted against time using GraphPad Prism Version 5.0d for Mac OS X (GraphPad Software, San Diego Calif., USA, www.graphpad.com).

M. tuberculosis H37Rv [4] = assay: Growth inhibition / time dose curves (OD600 and CFU); assay type: cell-based, Mycobacterium tuberculosis; conditions: O.D. 600 nm growth curves, 5 days
M. tuberculosis = assay: Benzimidazoles activity tested in animals (animal models of infection, Table A); assay type: in vivo, mouse; conditions: for Efficacy Lung / Efficacy Spleen: Table A
Protocol: as §1
Compound efficacy was assessed in two murine models of infection based on the short term model described previously (Lenaerts et al., Antimicrob. Agents Chemother. 2003; 47:783-785). All aerosol infections were performed using a Middlebrook aerosol generation devise (Glas-Col, Terre Haute, Ind.).

M. tuberculosis H37Rv [5] = assay: MIC / dose response by modified microplate Alamar Blue assay (MABA); assay type: cell-based, Mycobacterium tuberculosis; conditions: for drug concentration response curve (kill curve) type: FIG. 3; for MIC range: H37Rv and Erdman strains

## Cc1ncc([N+](=O)[O-])n1CCO [Metronidazole, reference compound]
[1]
  Log10 (CFU+/−SD): 4.83 ± 0.06
  % Growth Reduction: 70%
  Log10 (CFU) Reduction: 0.52

## CO[C@H]1/C=C/O[C@@]2(C)Oc3c(C)c(O)c4c(O)c(c(/C=N/N5CCN(C)CC5)c(O)c4c3C2=O)NC(=O)/C(C)=C\C=C\[C@H](C)[C@H](O)[C@@H](C)[C@@H](O)[C@@H](C)[C@H](OC(C)=O)[C@@H]1C [Rifampicin, reference compound]
M. tuberculosis H37Rv [2]; SB-P8B2 with rifampicin
  MIC In Combination: 0.5 × MIC
M. tuberculosis H37Rv [2]
  MIC Alone: 1 × MIC

## CCN(CC)c1cc2[nH]c(C3CCCCC3)nc2cc1NC(=O)c1ccc(OC)cc1.O=C(O)/C=C/C(=O)O [SB-P1G10-FUM]
[3]; Table B
  Curve: Zonal
  MIC: 6.25

## CCN(CC)c1cc2[nH]c(C3CCCCC3)nc2cc1NC(=O)c1ccc(OC)cc1 [SB-P1G10]
M. tuberculosis H37Rv [4]
  concentrations at which bacterial growth was inhibited: none of the concentrations tested
M. tuberculosis
  Efficacy Lung: No
  Efficacy Spleen: No
M. tuberculosis; any animal model of infection conducted
  bacterial load in the lungs or spleen: never reduced the bacterial load
[3]; Table A
  Curve: Zonal
  MIC: 3.13-6.25
M. tuberculosis H37Rv [5]
  drug concentration response curve (kill curve) type: narrow range of concentrations of effective bactericidal activity (NREBA) kill curve
  MIC range: 3 to 6.25 µg/mL
M. tuberculosis H37Rv [5]; drug concentration response curve
  concentration range of bactericidal activity: 0.5-4 fold of MIC

## CCN(CC)c1cc2[nH]c(C3CCCCC3)nc2cc1NC(=O)c1ccc(N(C)C)cc1 [SB-P1G-A11]
[3]; Table B
  Curve: Zonal
  MIC: 12.5

## CCN(CC)c1cc2[nH]c(C3CCCCC3)nc2cc1NC(=O)c1cnccn1 [SB-P1G-A12]
[3]; Table B
  Curve: Zonal
  MIC: 12.5

## CCc1ccc(C(=O)Nc2cc3nc(C4CCCCC4)[nH]c3cc2N(CC)CC)cc1 [SB-P1G-A17]
[3]; Table B
  Curve: Zonal
  MIC: 1.56

## C=Cc1cccc(C(=O)Nc2cc3nc(C4CCCCC4)[nH]c3cc2N(CC)CC)c1 [SB-P1G-A21]
[3]; Table B
  Curve: Zonal
  MIC: 25

## CCCOCC(=O)Nc1cc2nc(C3CCCCC3)[nH]c2cc1N1CCCC1 [SB-P6B-A3]
[3]; Table B
  Curve: Zonal
  MIC: 12.5

## CCCCOC(=O)Nc1cc2nc(C3CCCCC3)[nH]c2cc1N1CCCC1 [SB-P8B2]
M. tuberculosis H37Rv [2]; SB-P8B2 with rifampicin
  MIC In Combination: 0.1 × MIC
  enhancement of activity in the presence of the other drug: 8 fold
  ΣFIC: 0.63
M. tuberculosis H37Rv [2]
  MIC Alone: 1 × MIC
M. tuberculosis H37Rv [4]
  concentrations at which bacterial growth was inhibited: > 0.31 µg/mL
M. tuberculosis
  Efficacy Lung: Yes (.243)
  Efficacy Spleen: No
[3]; Table A
  Curve: Sigmoid
  MIC: .625
M. tuberculosis H37Rv [5]
  drug concentration response curve (kill curve) type: sigmoidal kill curves
  MIC range: 0.39 to 0.78 µg/mL
[1]
  Log10 (CFU+/−SD): 4.96 ± 0.18
  % Growth Reduction: 59%
  Log10 (CFU) Reduction: 0.39

## COc1ccc(C(=O)Nc2cc3nc(C4CCCCC4)[nH]c3cc2N(C)C)cc1 [SB-P17G-A16]
M. tuberculosis
  Efficacy Lung: Yes
  Efficacy Spleen: Yes
[3]; Table A
  Curve: Sigmoid
  MIC: .31
